In one data set the target is T1, PSMA (Homo sapiens, UniProt Q04609).
T1 construct: host or cells: LNCaP cells
As to the kind of experiment: Competitive binding (IC50) on LNCaP cells vs ([125I]I-BA)KuE. The settings on record: 1 h, 4 °C, n = 5-9, read-out: IC50 (binding affinity). As to the method:
(§1) Competitive binding studies were determined on LNCaP cells (1.5 × 10^5 cells in 1 mL/well) after incubation at 4 °C for 1 h, using (((S)-1-carboxy-5-(4-([^125I]iodo)benzamido)pentyl)carbamoyl)-L-glutamic acid (([^125I]I-BA)KuE; 0.2 nM/well) as reference radioligand (n = 5–9). Internalization studies of the radiolabeled ligands (0.5 nM/well) were performed on LNCaP cells (1.25 × 10^5 cells in 1 mL/well) at 37 °C for 1 h and accompanied by ([^125I]I-BA)KuE (0.2 nM/well), as reference. Data were corrected for non-specific binding and normalized to the specific internalization observed for the reference (n = 3–6). A detailed description of the experimental procedures was previously published.

For data set [1], the system named is LNCaP tumor-bearing male CB-17 SCID mice. As to the kind of experiment: Biodistribution 1 h p.i. with competition (co-injection of 2-PMPA). Type of data set: in vivo. The settings on record: co-injected with 2-PMPA (8 mg/kg), n = 3. Here is the method: (§2) LNCaP tumor xenografts were established in 6–8 weeks old male CB-17 SCID mice as described previously.
(§3) 1–3 MBq (0.2 nmol) of the [^18F, ^natGa]rhPSMA inhibitors were injected into the tail vein of LNCaP tumor-bearing male CB-17 SCID mice that were sacrificed 1 h post injection (p.i.) (n = 4 for 7.1, n = 5 for 7.2, n = 4 for 7.3, n = 5 for 7.4 and n = 3 for 7). Selected organs were removed, weighed, and measured in a γ-counter. For competition studies, 8 mg/kg of 2-PMPA (2-(Phosphonomethyl)-pentandioic acid) were co-administered (n = 3).

The next data set relates to LNCaP tumor-bearing mice. As to the kind of experiment: Differential uptake and excretion pattern of isomers after injection of the diastereomeric mixture (radio-HPLC). It is filed as in vivo. The settings on record: blood, liver, kidney and tumor, 30 min p.i., n = 4. Here is the method: With the intention to identify even marginal differences in the in vivo behavior, all four [^18F, ^natGa]rhPSMA-7 isomers were co-evaluated in one single tumor-bearing mouse in order to quantify the differential uptake and excretion pattern of each isomer. For this purpose, the diastereomeric mixture [^18F, ^natGa]rhPSMA-7 was produced in high molar activity (AM) of 247–349 GBq/µmol (at end of synthesis) and the abundance of each isomer was determined by radio-HPLC. Mice (n = 4) were injected with [^18F, ^natGa]rhPSMA-7 (180–280 MBq, 0.9–1.0 nmol) and left under anesthesia. After 30 min p.i., they were sacrificed and urine, blood, liver, kidneys and tumor were collected and processed. Radioactivity was extracted from solid tissues by means of a Potter–Elvehjem tissue grinder (n = 1) or a ball mill (n = 3) and separated from the protein fraction by subsequent cartridge-based solid-phase extraction (SPE). Blood samples were diluted, centrifuged and the supernatant was purified by SPE (see supporting information). Urine and extracts from tissue samples were then analyzed by radio-HPLC to quantify the fraction of each isomer in each sample. Finally, the relative percentage difference between the abundance of each isomer in the injected diastereomeric mixture (values taken from the quality control) and the abundance of the respective isomer in each analyzed tissue or body fluid was calculated. […] PeakFit allows for automated nonlinear separation, analysis and quantification of HPLC elution profiles by deconvolution procedures that uses a Gaussian response function with a Fourier deconvolution/filtering algorithm (see Additional file 1: Fig. 7).
Extraction via the Potter-Elvehjem Tissue Grinder. Tumor and kidneys were separately homogenized in the tissue homogeniser with 1 mL of extraction buffer (850 μL 1 M HEPES pH 7.4, 100 μL 20 mM PMPA and 100 μL 1 M NaCl) for 30 min. The resulting homogenate was collected and centrifuged at 13000×g for 5 min. Subsequently, the supernatant was collected, centrifuged again (13000×g, 5 min) and loaded on a Strata X cartridge (33 μm Polymeric Reversed Phase 500 mg) preconditioned with 5 mL MeOH, followed by 5 mL H2O. After washing with 5 mL H2O, the cartridge was eluted with a 3:2 mixture (v/v) of MeCN in H2O supplemented with 1% TFA. For radio-HPLC analysis the eluates were diluted with water.
Extraction via the MM-400 Ball Mill. The samples (tumor, kidney, liver) were separately homogenized in a 2 mL tube together with 3 grinding balls (3 mm diameter) and 1 mL of extraction buffer (850 μL 1 M HEPES pH 7.4, 100 μL 20 mM PMPA and 100 μL 1 M NaCl) for 10 min at 30 Hz. The homogenate was centrifuged at 13 000×g for 5 min and the supernatant was collected. […]

The test system of data set [2] is LNCaP tumor-bearing male CB-17 SCID mice. As to the kind of experiment: Biodistribution 1 h p.i. It is filed as in vivo. As to the method: as §2, §3
The next data set has as its target T2, human serum albumin (Homo sapiens, UniProt P02768).
T2 construct: purchased
As to the kind of experiment: Human serum albumin binding on Chiralpak HSA column. Type of data set: in vitro ADME. Here is the method: Approximately 1 MBq of the ^18F-ligand was dissolved in 1 mL of a 1:1 mixture (v/v) of phosphate-buffered saline (PBS, pH 7.4) and n-octanol (n = 18–23). After vigorous mixing of the suspension for 3 min, the vial was centrifuged at 15,000 × g for 3 min and 100 μL aliquots of both layers were measured in a γ-counter. HSA binding of ^19F-^natGa-rhPSMA ligands was determined according to a previously published procedure.

Another data set concerns LNCaP cells. As to the kind of experiment: Internalization into LNCaP cells relative to ([125I]I-BA)KuE. Type of data set: cell-based. The conditions noted are these: 1 h, 37 °C, percentage of reference ligand ([125I]I-BA)KuE, n = 3-6. As to the method: as §1

What is called IC50 is the point on the concentration scale where inhibition reaches its midpoint.

T1 sequence (Q04609 whole entry): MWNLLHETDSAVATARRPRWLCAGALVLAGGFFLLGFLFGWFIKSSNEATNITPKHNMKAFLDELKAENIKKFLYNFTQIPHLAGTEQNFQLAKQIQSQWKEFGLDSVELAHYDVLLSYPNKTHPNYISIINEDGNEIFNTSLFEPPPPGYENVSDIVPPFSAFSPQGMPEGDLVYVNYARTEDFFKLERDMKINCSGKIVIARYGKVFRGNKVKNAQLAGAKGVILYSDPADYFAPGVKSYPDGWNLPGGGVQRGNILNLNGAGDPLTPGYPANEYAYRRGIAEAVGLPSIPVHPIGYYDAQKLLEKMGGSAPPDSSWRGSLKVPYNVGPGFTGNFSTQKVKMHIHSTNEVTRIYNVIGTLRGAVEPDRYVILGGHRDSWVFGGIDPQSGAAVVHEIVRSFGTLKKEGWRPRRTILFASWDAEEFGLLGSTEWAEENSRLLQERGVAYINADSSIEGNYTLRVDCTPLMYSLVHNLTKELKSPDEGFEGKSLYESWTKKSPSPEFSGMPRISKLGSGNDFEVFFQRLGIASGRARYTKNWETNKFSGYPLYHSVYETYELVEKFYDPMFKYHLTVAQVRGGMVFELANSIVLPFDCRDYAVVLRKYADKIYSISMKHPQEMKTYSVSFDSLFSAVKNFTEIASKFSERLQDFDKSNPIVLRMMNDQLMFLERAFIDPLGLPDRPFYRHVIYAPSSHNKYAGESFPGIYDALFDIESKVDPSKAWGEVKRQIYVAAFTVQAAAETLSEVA
T2 sequence (P02768 25-609): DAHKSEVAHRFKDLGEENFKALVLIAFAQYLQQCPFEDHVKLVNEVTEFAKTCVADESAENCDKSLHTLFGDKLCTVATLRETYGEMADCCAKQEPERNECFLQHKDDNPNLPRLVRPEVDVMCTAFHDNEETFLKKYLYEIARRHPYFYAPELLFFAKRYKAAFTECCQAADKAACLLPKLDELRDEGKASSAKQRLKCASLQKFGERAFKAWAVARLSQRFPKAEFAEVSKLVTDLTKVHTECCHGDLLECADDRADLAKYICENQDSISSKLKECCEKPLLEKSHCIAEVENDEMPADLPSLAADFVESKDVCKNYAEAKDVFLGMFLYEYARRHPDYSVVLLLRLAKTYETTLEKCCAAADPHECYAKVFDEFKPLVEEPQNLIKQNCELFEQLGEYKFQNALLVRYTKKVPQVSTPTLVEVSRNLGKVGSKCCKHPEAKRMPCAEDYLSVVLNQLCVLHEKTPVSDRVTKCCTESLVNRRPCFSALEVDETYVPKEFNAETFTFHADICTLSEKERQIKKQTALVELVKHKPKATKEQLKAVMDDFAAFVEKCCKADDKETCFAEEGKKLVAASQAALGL

With `CC(C)(C)[Si](F)(c1ccc(C(=O)NC[C@@H](NC(=O)CC[C@H](C(=O)O)N2CCN(CC(=O)[O-])CCN(CC(=O)[O-])CCN(CC(=O)[O-])CC2)C(=O)N[C@H](CCCCNC(=O)CCC(=O)NCCC[C@@H](NC(=O)CC[C@H](NC(=O)N[C@@H](CCC(=O)O)C(=O)O)C(=O)O)C(=O)O)C(=O)O)cc1)C(C)(C)C.[Ga+3]` [[^18F, ^natGa]rhPSMA-7.1], the IC50 at PSMA worked out at 6.9 ± 1.4 nM.

In the case of `CC(C)(C)[Si](F)(c1ccc(C(=O)NC[C@H](NC(=O)CC[C@H](C(=O)O)N2CCN(CC(=O)[O-])CCN(CC(=O)[O-])CCN(CC(=O)[O-])CC2)C(=O)N[C@H](CCCCNC(=O)CCC(=O)NCCC[C@@H](NC(=O)CC[C@H](NC(=O)N[C@@H](CCC(=O)O)C(=O)O)C(=O)O)C(=O)O)C(=O)O)cc1)C(C)(C)C.[Ga+3]` [[^18F, ^natGa]rhPSMA-7.2], the IC50 on PSMA was 3.7 ± 1 nM.

For the compound `CC(C)(C)[Si]([18F])(c1ccc(C(=O)NC[C@H](NC(=O)CC[C@H](C(=O)O)N2CCN(CC(=O)[O-])CCN(CC(=O)[O-])CCN(CC(=O)[O-])CC2)C(=O)N[C@H](CCCCNC(=O)CCC(=O)NCCC[C@@H](NC(=O)CC[C@H](NC(=O)N[C@@H](CCC(=O)O)C(=O)O)C(=O)O)C(=O)O)C(=O)O)cc1)C(C)(C)C.[Ga+3]` [[^18F, ^natGa]rhPSMA-7.2], in data set [1], the “Biodistribution Adrenals” value worked out at 0.07 ± 0.10 % ID/g, the “Biodistribution Blood” value was 1.1 ± 0.31 % ID/g, the “Biodistribution Bone” value is 0.57 ± 0.39 % ID/g and the “Biodistribution Heart” value is recorded as 0.47 ± 0.09 % ID/g. In data set [1], the “Biodistribution Intestine” value is reported as 0.33 ± 0.10 % ID/g, the “Biodistribution Kidneys” value was found to be 10.9 ± 1.0 % ID/g, the “Biodistribution Liver” value is 0.46 ± 0.07 % ID/g and the “Biodistribution Lung” value is reported as 1.1 ± 0.32 % ID/g. Besides, in data set [1], the “Biodistribution Muscle” value is reported as 0.09 ± 0.03 % ID/g, the “Biodistribution Pancreas” value came out at 0.12 ± 0.05 % ID/g, the “Biodistribution Spleen” value is given as 0.26 ± 0.07 % ID/g and the “Biodistribution Stomach” value is recorded as 0.21 ± 0.06 % ID/g. Besides, in data set [1], the “Biodistribution Tumor” value came out at 1.0 ± 0.13 % ID/g. The “Abundance (enrichment) of the isomer in tissue compared to time point of injection” value with LNCaP tumor-bearing mice is “lowest enrichment in blood, liver and kidney, but also the lowest uptake by tumors”. Besides, in data set [2], the “Biodistribution Adrenals” value was determined as 1.3 ± 0.8 % ID/g, the “Biodistribution Blood” value was determined as 0.56 ± 0.20 % ID/g, the “Biodistribution Bone” value amounted to 0.31 ± 0.24 % ID/g and the “Biodistribution Heart” value was 0.32 ± 0.13 % ID/g. Also, in data set [2], the “Biodistribution Intestine” value is 0.18 ± 0.07 % ID/g, the “Biodistribution Kidneys” value worked out at 87.6 ± 28.8 % ID/g, the “Biodistribution Liver” value was determined as 0.35 ± 0.08 % ID/g and the “Biodistribution Lung” value was determined as 0.89 ± 0.38 % ID/g. Also, in data set [2], the “Biodistribution Muscle” value worked out at 0.13 ± 0.07 % ID/g, the “Biodistribution Pancreas” value amounted to 0.21 ± 0.08 % ID/g, the “Biodistribution Spleen” value is 10.1 ± 6.3 % ID/g and the “Biodistribution Stomach” value came to 0.19 ± 0.08 % ID/g. Further, the “Biodistribution Tumor” value in data set [2] was 6.5 ± 2.3 % ID/g. Further, the HSA-binding on human serum albumin was 98%. The “Internalization (internalized activity)” value with LNCaP cells is on record as 192 ± 16 % of reference.

Regarding `CC(C)(C)[Si](F)(c1ccc(C(=O)NC[C@@H](NC(=O)CC[C@@H](C(=O)O)N2CCN(CC(=O)[O-])CCN(CC(=O)[O-])CCN(CC(=O)[O-])CC2)C(=O)N[C@H](CCCCNC(=O)CCC(=O)NCCC[C@@H](NC(=O)CC[C@H](NC(=O)N[C@@H](CCC(=O)O)C(=O)O)C(=O)O)C(=O)O)C(=O)O)cc1)C(C)(C)C.[Ga+3]` [[^18F, ^natGa]rhPSMA-7.3], the IC50 at PSMA came to 4.4 ± 1.1 nM.

Turning to `CC(C)(C)[Si]([18F])(c1ccc(C(=O)NC[C@@H](NC(=O)CC[C@@H](C(=O)O)N2CCN(CC(=O)[O-])CCN(CC(=O)[O-])CCN(CC(=O)[O-])CC2)C(=O)N[C@H](CCCCNC(=O)CCC(=O)NCCC[C@@H](NC(=O)CC[C@H](NC(=O)N[C@@H](CCC(=O)O)C(=O)O)C(=O)O)C(=O)O)C(=O)O)cc1)C(C)(C)C.[Ga+3]` [[^18F, ^natGa]rhPSMA-7.3], in data set [1], the “Biodistribution Adrenals” value is 0.07 ± 0.09 % ID/g, the “Biodistribution Blood” value was found to be 0.55 ± 0.14 % ID/g, the “Biodistribution Bone” value was determined as 0.34 ± 0.22 % ID/g and the “Biodistribution Heart” value is 0.26 ± 0.04 % ID/g. For the same compound, in data set [1], the “Biodistribution Intestine” value is recorded as 0.94 ± 0.97 % ID/g, the “Biodistribution Kidneys” value was found to be 15.5 ± 2.2 % ID/g, the “Biodistribution Liver” value is 0.46 ± 0.14 % ID/g and the “Biodistribution Lung” value came to 0.69 ± 0.10 % ID/g. Also, in data set [1], the “Biodistribution Muscle” value was determined as 0.09 ± 0.02 % ID/g, the “Biodistribution Pancreas” value is given as 0.11 ± 0.02 % ID/g, the “Biodistribution Spleen” value was 0.35 ± 0.02 % ID/g and the “Biodistribution Stomach” value was 0.76 ± 0.74 % ID/g. The “Biodistribution Tumor” value in data set [1] was found to be 1.5 ± 0.4 % ID/g. The “Abundance (enrichment) of the isomer in tissue compared to time point of injection” value with LNCaP tumor-bearing mice is “higher”. Further, in data set [2], the “Biodistribution Adrenals” value amounted to 2.2 ± 0.83 % ID/g, the “Biodistribution Blood” value stood at 0.96 ± 0.24 % ID/g, the “Biodistribution Bone” value worked out at 0.38 ± 0.32 % ID/g and the “Biodistribution Heart” value is reported as 0.87 ± 0.17 % ID/g. For the same compound, in data set [2], the “Biodistribution Intestine” value was 0.35 ± 0.07 % ID/g, the “Biodistribution Kidneys” value turned out to be 292 ± 45.1 % ID/g, the “Biodistribution Liver” value was found to be 0.69 ± 0.13 % ID/g and the “Biodistribution Lung” value is on record as 2.2 ± 0.35 % ID/g. In addition, in data set [2], the “Biodistribution Muscle” value is listed as 0.33 ± 0.15 % ID/g, the “Biodistribution Pancreas” value stood at 0.63 ± 0.44 % ID/g, the “Biodistribution Spleen” value came to 16.6 ± 2.6 % ID/g and the “Biodistribution Stomach” value came to 0.44 ± 0.23 % ID/g. Also, the “Biodistribution Tumor” value in data set [2] was 18.3 ± 7.2 % ID/g. At human serum albumin, this compound registered an HSA-binding of 97%. Besides, the “Internalization (internalized activity)” value in the data set on LNCaP cells is recorded as 161 ± 9 % of reference.

With `CC(C)(C)[Si](F)(c1ccc(C(=O)NC[C@H](NC(=O)CC[C@@H](C(=O)O)N2CCN(CC(=O)[O-])CCN(CC(=O)[O-])CCN(CC(=O)[O-])CC2)C(=O)N[C@H](CCCCNC(=O)CCC(=O)NCCC[C@@H](NC(=O)CC[C@H](NC(=O)N[C@@H](CCC(=O)O)C(=O)O)C(=O)O)C(=O)O)C(=O)O)cc1)C(C)(C)C.[Ga+3]` [[^18F, ^natGa]rhPSMA-7.4], the IC50 at PSMA came out at 3.6 ± 0.7 nM.
